This note sets out measurements from patent EP4782431A1 (Suzhou Merna Therapeutics Co. Ltd, priority 2023, dated 2025).

Data set [1] has as its system rat models with a hand-foot skin reaction. The data set is described as follows: rat models with a hand-foot skin reaction. Type of data set: in vivo, SD rats. As for the experimental part: After adaptive feeding for one week, SD rats (with a body weight of approximately 200 g) were randomly divided into groups with balanced body weight, with 12 rats in each group. Modeling drugs (including sorafenib, erlotinib, afatinib, and osimertinib) were respectively dissolved in a solution containing 5% of DMSO, 45% of PEG400, and 50% of H2O, and the modeling drugs were diluted to required concentrations and then administered once daily by gavage at doses shown in Table 3. After administration by gavage for 1 hour, 0.05 g of ointments containing different mass proportions of test compounds were evenly applied to left paws of the rats, a blank matrix ointment was applied to right paws of the rats to serve as a self-control, and no ointment was applied to the rats in a blank control group. After drug application, four limbs were continuously immobilized for 2 hours, then wiped with clean water to remove the residual drugs, removed from immobilization, and restored to free movement. The modeling drugs, the blank matrix ointment, and the ointments containing the test compounds were all administered once daily. After continuous administration for 30 days, the rats were euthanized, and paw plantar skin tissues were collected, fixed in 10% neutral formalin, […]. The ointments for the test compounds were prepared by mixing the compounds, white beeswax, white petrolatum, and light liquid paraffin in specific ratios (weight ratios of 3 ointments were respectively 1:18:58:23, 3:18:57:22, and 10:20:40:30). The blank matrix ointment was prepared by mixing white beeswax, white petrolatum, and light liquid paraffin in a specific ratio (weight ratio of 18:60:22).
Tissue staining: After dewaxing and rehydration, the paw plantar skin tissue sections of the above rats were stained in a hematoxylin solution for several minutes, cleaned, and placed in 1% acid alcohol for soaking until the sections faded to light blue-red. After cleaning with running water for 5 minutes, the sections were stained with eosin for 2-3 minutes, cleaned to remove excess dyes, dehydrated, then permeabilized by adding xylene for several minutes, and sealed and fixed with a neutral resin. The stratum corneum was observed under an optical microscope, and the thickness of the epidermal stratum corneum was measured using Dmetrix software.
Immunohistochemical staining: After dewaxing and hydration, the paw plantar skin tissue sections of the above rats were incubated with 3% H2O2 at room temperature for 30 minutes and blocked with 10% goat serum for 30 minutes after antigen retrieval. A KRT1 antibody (Abcam, ab93652) and a Loricrin antibody (Abcam, ab183646) were added dropwise, the sections were incubated overnight at 4°C, and an HRP secondary antibody (ZSGB-BIO, PV-6001) and a DAB kit (ZSG-BIO, ZLI9017) were added for color development. The sections were re-stained with hematoxylin, cleaned, and sealed and fixed with a neutral resin, and the expression amounts of KRT1 and Loricrin were observed under an optical microscope.
An incidence rate calculation method involves a proportion of animals in each group meeting the above criteria for determining successful modeling, that is, incidence rate = (number of successfully modeled rats/total number of rats in the group)*100%. […]

The nature of data set [2]: stability of crystal forms (XRPD, HPLC, color). The data set is classed as physicochemical. Conditions: for Crystal form: XRPD. As for the experimental part:
A 2θ scanning angle of the sample was 3°-40°, a scanning step size was 0.02°, and a scanning time per step was 0.12 s/step. An optical tube voltage and a current were 40 kV and 40 mA, respectively. During sample preparation, an appropriate amount of the sample was placed on a sample tray and flattened with a tool such as a glass slide to ensure a smooth and even surface.
An Agilent 1260 infinityII binary pump was used for solubility and stability testing.
The stability of samples under these conditions was detected by XRPD and HPLC, and whether the samples had color changes was observed.
A certain amount of the crystal form C of the compound of formula (I) was weighed and placed in an open container at 25°C/92.5%RH for 1 week. A certain amount of the crystal form C of the compound of formula (I) was weighed and placed in a closed container at 60°C for 1 week. The stability of samples under these conditions was detected by XRPD and HPLC, and whether the samples had color changes was observed. Table 16 Stability test results of the crystal form C of the compound of formula (I)
A certain amount of the crystal form D of the compound of formula (I) was weighed and placed in an open container at 25°C/92.5%RH for 1 week. A certain amount of the crystal form D of the compound of formula (I) was weighed and placed in a closed container at 60°C for 1 week. The stability of samples under these conditions was detected by XRPD and HPLC, and whether the samples had color changes was observed. Table 17 Stability test results of the crystal form D of the compound of formula (I)
A certain amount of the crystal form E of the compound of formula (I) was weighed and placed in an open container at 25°C/92.5%RH for 1 week. A certain amount of the crystal form E of the compound of formula (I) was weighed and placed in a closed container at 60°C for 1 week. The stability of samples under these conditions was detected by XRPD and HPLC, and whether the samples had color changes was observed. Table 18 Stability test results of the crystal form E of the compound of formula (I)

A short description of data set [3]: hygroscopicity by dynamic vapor sorption (DVS). Conditions: for 1st adsorption Percentage of weight change / 1st desorption Percentage of weight change / 2nd adsorption Percentage of weight change / 2nd desorption Percentage of weight change: 40-0-95-0-40%RH, 240 min per step. Type of data set: physicochemical. As for the experimental part: ProUmid SPSx-1µ Advance was used for analysis of a sample. The sample to be tested was approximately in an amount of 5-50 mg. A temperature in a test chamber was controlled at 25±1°C, a relative humidity cycle was […], a step size was 10%, an equilibrium time was 240 minutes per step, and mass data was recorded every 20 seconds.
A DVS cycle was 40-0-95-0-40%RH. XRPD detection was performed on samples after the DVS testing to determine whether crystal form transformation occurred.

Where [4] appears, read: modeling drug alone by gavage once daily 30 days (Sorafenib 100, Erlotinib 70, Afatinib 50, Osimertinib 60 mg/kg), no test compound.

Consider `C#Cc1cccc(Nc2ncnc3cc(OCCOC)c(OCCOC)cc23)c1` [Erlotinib, erlotinib, reference compound], for which, in data set [1] (rat, in vivo), the “KRT1 and Loricrin in tissues” value is listed as “significantly increased”; the “stratum corneum thickness of the paw plantar skin” value is reported as “significantly higher than that of normal rats”.
As for `NC(=O)[C@H]1CCCc2c1[nH]c1ccc(Cl)cc21` [Crystal form D, (S)-6-chloro-2,3,4,9-tetrahydro-1H-carbazole-carboxamide], the Color entry was “No change” in data set [2] (25°C/92.5%RH, open, 1 week) and “Changed” in data set [2] (60°C, closed, 1 week). The “Degradation (%)” value is on record as 0.6% in data set [2] (25°C/92.5%RH, open, 1 week); 0.6% in data set [2] (25°C/92.5%RH, open, 1 week, listed as crystal form D); 1.1% in data set [2] (60°C, closed, 1 week); 1.1% in data set [2] (60°C, closed, 1 week, listed as crystal form D). The “Purity (%)” value in data set [2] (25°C/92.5%RH, open, 1 week) is 99.2%; in data set [2] (60°C, closed, 1 week), 98.7%; in data set [2] (Initial), 99.8%. The Crystal form entry in data set [2] (60°C, closed, 1 week) is recorded as “D+F”.
As for `NC(=O)[C@H]1CCCc2c1[nH]c1ccc(Cl)cc21` [Crystal form C, (S)-6-chloro-2,3,4,9-tetrahydro-1H-carbazole-carboxamide], in data set [2] (25°C/92.5%RH, open, 1 week), the Color entry is “No change”, the “Degradation (%)” value came to 0.6% and the “Purity (%)” value came to 99.1%. Also, in data set [2] (60°C, closed, 1 week), the Color entry was “Changed”, the “Degradation (%)” value stood at 0.1% and the “Purity (%)” value came out at 99.6%. In addition, in data set [2] (Initial), the “Purity (%)” value amounted to 99.7%.
Turning to `NC(=O)[C@H]1CCCc2c1[nH]c1ccc(Cl)cc21` [Crystal form A, (S)-6-chloro-2,3,4,9-tetrahydro-1H-carbazole-carboxamide], the Color result in data set [2] (25°C/92.5%RH, open, 1 week) is on record as “No change”; in data set [2] (60°C, closed, 1 week) it was “No change”. The “Degradation (%)” value in data set [2] (25°C/92.5%RH, open, 1 week) is reported as “None”; in data set [2] (60°C, closed, 1 week), “None”. The “Purity (%)” value is on record as 99.8% in data set [2] (25°C/92.5%RH, open, 1 week); 99.8% in data set [2] (60°C, closed, 1 week); 99.8% in data set [2] (Initial). In addition, the “Hygroscopicity Conclusion” value in data set [3] (DVS at 25°C, Table 15) is listed as “Slight hygroscopicity”. The “1st adsorption Percentage of weight change” value turned out to be 0.3% in data set [3] (Relative humidity 0% at 25°C); 0.1% in data set [3] (Relative humidity 10% at 25°C); 0.3% in data set [3] (Relative humidity 20% at 25°C); 0.3% in data set [3] (Relative humidity 30% at 25°C); 0.1% in data set [3] (Relative humidity 40% at 25°C); 0.0% in data set [3] (Relative humidity 50% at 25°C). Besides, the “1st adsorption Percentage of weight change” value in data set [3] (Relative humidity 60% at 25°C) amounted to 0.4%; in data set [3] (Relative humidity 70% at 25°C) it was 0.4%; in data set [3] (Relative humidity 80% at 25°C), 0.5%; in data set [3] (Relative humidity 90% at 25°C) it was 0.5%; in data set [3] (Relative humidity 95% at 25°C), 0.7%. The “1st desorption Percentage of weight change” value in data set [3] (Relative humidity 0% at 25°C) was 0.3%; in data set [3] (Relative humidity 10% at 25°C), 0.3%; in data set [3] (Relative humidity 20% at 25°C), 0.1%; in data set [3] (Relative humidity 30% at 25°C), 0.1%; in data set [3] (Relative humidity 40% at 25°C), 0.3%. For the same compound, the “2nd adsorption Percentage of weight change” value in data set [3] (Relative humidity 0% at 25°C) is listed as 0.2%; in data set [3] (Relative humidity 10% at 25°C), 0.3%; in data set [3] (Relative humidity 20% at 25°C), 0.3%; in data set [3] (Relative humidity 30% at 25°C), 0.1%; in data set [3] (Relative humidity 40% at 25°C) it was 0.3%. Also, the “2nd desorption Percentage of weight change” value was found to be 0.2% in data set [3] (Relative humidity 0% at 25°C); 0.3% in data set [3] (Relative humidity 10% at 25°C); 0.2% in data set [3] (Relative humidity 20% at 25°C); 0.3% in data set [3] (Relative humidity 30% at 25°C); 0.4% in data set [3] (Relative humidity 40% at 25°C); 0.1% in data set [3] (Relative humidity 50% at 25°C). Also, the “2nd desorption Percentage of weight change” value in data set [3] (Relative humidity 60% at 25°C) was 0.4%; in data set [3] (Relative humidity 70% at 25°C), 0.4%; in data set [3] (Relative humidity 80% at 25°C) it was 0.2%; in data set [3] (Relative humidity 90% at 25°C), 0.6%; in data set [3] (Relative humidity 95% at 25°C) it was 0.7%. In addition, in data set [3] (after DVS cycle 40-0-95-0-40%RH at 25°C), the “XRPD after DVS testing” value is “Crystal form A”. The compound also yielded a water absorption in data set [3] (from 40% to 95%RH, 25°C) of 0.6%.
On to `CN(C)C/C=C/C(=O)Nc1cc2c(Nc3ccc(F)c(Cl)c3)ncnc2cc1O[C@H]1CCOC1` [Afatinib, afatinib, reference compound], for which, in data set [1] (SD rats, once daily by gavage: sorafenib 100, erlotinib 70, afatinib 50, osimertinib 60 mg/kg), the “successful modeling rates for the hand-foot skin reaction” value is 66.7%. Further, in data set [1] (immunohistochemical staining, successfully modeled rats, modeling drug alone), the “KRT1 and Loricrin in tissues” value was “significantly increased”. Besides, in data set [1] (setting [4]), the “Incidence rate Left paw” value is 8/12 (66.7%) and the “Incidence rate Right paw” value is reported as 8/12 (66.7%). Further, the “stratum corneum thickness of the paw plantar skin” value in data set [1] (successfully modeled rats, modeling drug alone, vs normal rats) is given as “significantly higher than that of normal rats”.
In the case of `NC(=O)[C@H]1CCCc2c1[nH]c1ccc(Cl)cc21` [Crystal form E, (S)-6-chloro-2,3,4,9-tetrahydro-1H-carbazole-carboxamide], the Color result is reported as “No change” in data set [2] (25°C/92.5%RH, open, 1 week) and “Changed” in data set [2] (60°C, closed, 1 week). In addition, the “Degradation (%)” value in data set [2] (25°C/92.5%RH, open, 1 week) came out at 0.2%; in data set [2] (25°C/92.5%RH, open, 1 week, listed as crystal form E), 0.2%; in data set [2] (60°C, closed, 1 week), 3.0%; in data set [2] (60°C, closed, 1 week, listed as crystal form E), 3.0%. In addition, the “Purity (%)” value in data set [2] (25°C/92.5%RH, open, 1 week) is reported as 99.2%; in data set [2] (60°C, closed, 1 week), 96.4%; in data set [2] (Initial), 99.4%. Further, the Crystal form result in data set [2] (60°C, closed, 1 week) is recorded as “E+F”.
